Where a SMILES comes first, the peptide text is derived from it. Where no end group is shown, it is not given here. The star is where a group is joined. X1 = O=C(c1c(Br)c(Br)c(Br)c2nn[nH]c12)*
Key:
hCK2α [1] = target: T1, hCK2α (Homo sapiens, UniProt P68400); assay: Relaxation-filtered 1H NMR (transverse relaxation) of peptides in the presence of hCK2α; assay type: binding; conditions: for R2,f, relaxation rate in the presence of hCK2α: 25 μM hCK2α, 2.5 mM peptide (100-fold excess), 25 mM Tris-HCl pH 7, 0.25 M NaCl, 10% D2O, global two-exponential fit, higher = stronger binding; for R2,f, relaxation rate in the presence of hCK2α / R2,s, relaxation rate for the free peptide: 25 °C; for R2,s, relaxation rate for the free peptide: same samples, slower component of the global two-exponential fit; for Relative binding to hCK2α, in words: relaxation-filtered NMR, compared with the other tested peptides
T1 construct: His-tag; made in house
T1 sequence (P68400 whole entry): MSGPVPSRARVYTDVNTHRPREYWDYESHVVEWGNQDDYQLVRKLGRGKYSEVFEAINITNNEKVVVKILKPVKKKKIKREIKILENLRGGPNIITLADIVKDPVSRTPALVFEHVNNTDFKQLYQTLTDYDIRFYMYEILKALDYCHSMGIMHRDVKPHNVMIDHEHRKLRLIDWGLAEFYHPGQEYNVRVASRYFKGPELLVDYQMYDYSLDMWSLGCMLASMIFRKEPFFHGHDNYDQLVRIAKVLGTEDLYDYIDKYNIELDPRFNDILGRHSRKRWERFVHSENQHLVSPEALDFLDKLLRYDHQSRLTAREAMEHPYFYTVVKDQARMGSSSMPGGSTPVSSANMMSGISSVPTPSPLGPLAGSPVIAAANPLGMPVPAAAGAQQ
Procedure: NMR samples containing tested peptides and hCk2α were prepared in 25 mM Tris–HCl (pH 7, 0.25 M NaCl) buffer with 10% D2O. The protein concentration was 25 μM, and a 100-fold peptide excess (2.5 mM) was used throughout the studies.
The scoring of the peptides’ binding affinities towards hCK2α was done according to the results of ^1H transverse (T2) relaxation filtering experiment. All spectra were recorded at 25 °C on Bruker Avance 500 NMR spectrometer (11.7 T) using 18 delays (0, 1, 2, 3, 4, 5, 10, 15, 20, 25, 30, 35, 40, 45, 50, 100, 150 and 200 ms). The spectra of 7500 Hz spectral width, 16k data points each, were collected using 16 scans with 2.0 s recycling delay preceded by 8 dummy scans.
NMR data were further processed and analyzed with the SpinWorks software (version 4.2.8.0), using cosine-squared window function and Gaussian filter resulting in 0.3 Hz broadening with no solvent filter applied prior to Fourier transformation. We analyzed ^1H transverse relaxation rates of selected nuclei representative for each type of amino acid residues present in the tested peptides, i.e Hγ of Glu (2.3ppm), Hβ of Asp (2.8ppm), Hβ of Ser (3.8ppm), Hγ(CH3) of Thr (1.1 ppm) and Hε of Lys (2.9ppm), respectively. Additionally, the resonance signals of amide protons (8.2–8.9ppm) were also analyzed. We performed the relaxation-filtered experiment, with the relaxation delay varying in the range of 1 to 200 ms. Variation in the intensity of particular resonance signals were analyzed using the model of two-exponential decay (1):1 y=A1⋅exp(t∗R2,f)+A2⋅exp(t∗R2,s)+y0 where R2,s and R2,f are the transverse relaxation rates of the free and the fraction of the virtually bound peptide, respectively. For each peptide the global optimization procedure was applied for all identified resonance signals.

hCK2α [2] = target: T1, hCK2α; assay: ADP-Glo kinase assay, inhibitory activity towards human CK2α; assay type: biochemical
Procedure: The ADP-Glo kinase assay (Promega) was used to measure the inhibition effect of the tested compounds. The kinase assay was carried in 96-well plate in volume of 25 μl in 20 mM Tris–HCl (pH 7.5) buffer, containing 100 ng hCK2α (1 μl), 10 μM CK2 substrate peptide […] (Biaffin GmbH & Co KG), 10 μM ATP, 20 mM MgCl2 and 2.5 μl of serially diluted ligand in DMSO. The reaction was initiated with enzyme in and kept going for 20 min at 30 °C. Reaction was stopped by adding 25 μl of ADP-Glo reagent. After incubation at room temperature for 40 min (to consume the remaining […]) 50 μl of kinase detection reagent were added and incubated for additional 30 minutes to produce luminescence signal. Luminescence was measured with The SpectraMax iD3 Multi-Mode Microplate Reader (Molecular Devices).

DETEEE-NH2
R2,f, relaxation rate in the presence of hCK2α (hCK2α [1]): 10.4 ± 1.6 s⁻¹ | R2,s, relaxation rate for the free peptide (hCK2α [1]): 2.2 ± 0.6 s⁻¹

EETEDE-NH2
R2,f, relaxation rate in the presence of hCK2α (hCK2α [1]): 17.2 ± 4.8 s⁻¹ | R2,s, relaxation rate for the free peptide (hCK2α [1]): 3.7 ± 0.5 s⁻¹

DDTDDD-NH2
R2,f, relaxation rate in the presence of hCK2α (hCK2α [1]): 7.1 ± 0.8 s⁻¹ | Relative binding to hCK2α, in words (hCK2α [1]): binds visibly weaker

EDTEEE-NH2
R2,f, relaxation rate in the presence of hCK2α (hCK2α [1]): 14.9 ± 2.5 s⁻¹ | R2,s, relaxation rate for the free peptide (hCK2α [1]): 1.5 ± 0.7 s⁻¹

DESEEE-NH2 [peptide named only in b23, possibly a misprint of DETEEE-NH2]
Relative binding to hCK2α, in words (hCK2α [1]): lower affinity

EETDEE-NH2
R2,f, relaxation rate in the presence of hCK2α (hCK2α [1]): 15.4 ± 2.1 s⁻¹ | R2,s, relaxation rate for the free peptide (hCK2α [1]): 2.3 ± 0.5 s⁻¹

EETEED-NH2
R2,f, relaxation rate in the presence of hCK2α (hCK2α [1]): 16.1 ± 2.3 s⁻¹ | R2,s, relaxation rate for the free peptide (hCK2α [1]): 2.2 ± 0.5 s⁻¹

NC(=O)[C@H](CCC(=O)O)NC(=O)[C@H](CCC(=O)O)NC(=O)[C@H](CCC(=O)O)NC(=O)[C@H](CO)NC(=O)[C@H](CCC(=O)O)NC(=O)[C@@H](N)CCCCNC(=O)c1c(Br)c(Br)c(Br)c2nn[nH]c12 [bi-substrate inhibitor] (H-K(X1)ESEEE-NH2)
Enhancement of inhibitory activity versus low-mass precursor 7-COOH-Br3Bt (hCK2α [2]; ratio of IC50 values): over 10 fold

O=C(O)c1c(Br)c(Br)c(Br)c2nn[nH]c12 [7-COOH-Br3Bt]
IC50 (hCK2α [2]; ADP-Glo, 100 ng hCK2α, 10 μM RRRDDDSDDD, 10 μM ATP, 20 mM MgCl2, pH 7.5, 20 min 30 °C, global fit of three independent experiments): 8 ± 6.3 µM

Reference: publication PMC6662822, “Rational drug-design approach supported with thermodynamic studies — a peptide leader for the efficient bi-substrate inhibitor of protein kinase CK2” (Scientific Reports, 2019)
